Measured values: patent publication EP3925956B1, “1H-INDAZOLE-3-CARBOXAMIDE DERIVATIVES AND RELATED COMPOUNDS AS FACTOR D INHIBITORS FOR TREATING DISEASES CHARACTERIZED BY ABERRANT COMPLEMENT SYSTEM ACTIVITY, SUCH AS E.G. IMMUNOLOGICAL DISORDERS” (BioCryst Pharmaceuticals, Inc., priority 2016, dated 2017)

Each compound was assayed against Factor D (Homo sapiens, UniProt P00746) (assay: Factor D esterolytic assay).
Sequence of Factor D (P00746 26-253): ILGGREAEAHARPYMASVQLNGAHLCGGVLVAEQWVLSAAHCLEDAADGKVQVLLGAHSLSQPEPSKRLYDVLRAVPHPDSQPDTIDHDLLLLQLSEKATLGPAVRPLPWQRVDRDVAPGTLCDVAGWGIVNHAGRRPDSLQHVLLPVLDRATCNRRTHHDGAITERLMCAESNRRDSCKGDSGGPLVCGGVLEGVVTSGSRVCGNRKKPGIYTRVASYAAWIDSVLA

Compound	IC50
C[C@@H](O)[C@H](NC(=O)Cn1nc(C(N)=O)c2ccccc21)C(=O)NCc1cccc(Cl)c1F [34d, 1-(2-(((2S,3R)-1-((3-chloro-2-fluorobenzyl)amino)-3-hydroxy-1-oxobutan-2-yl)amino)-2-oxoethyl)-1H-indazole-3-carboxamide]	> 10 µM
Nc1ncnc2c1ccn2CC(=O)N(CC(=O)Nc1cccc(Br)n1)C1CC1 [56d, 2-(4-amino-7H-pyrrolo[2,3-d]pyrimidin-7-yl)-N-(2-((6-bromopyridin-2-yl)amino)-2-oxoethyl)-N-cyclopropylacetamide]	1 to 10 µM
CC(C)N(CC(=O)NCc1cccc(Cl)c1F)C(=O)Cn1cc(C#N)c2c(N)ncnc21 [60a, 2-(4-amino-5-cyano-7H-pyrrolo[2,3-d]pyrimidin-7-yl)-N-(2-((3-chloro-2-fluorobenzyl)amino)-2-oxoethyl)-N-isopropylacetamide]	1 to 10 µM
Nc1ncnc2c1ccn2CC(=O)N(CC(=O)NCc1cccc(Cl)c1F)C1CC1 [63a, 2-(4-amino-7H-pyrrolo[2,3-d]pyrimidin-7-yl)-N-(2-((3-chloro-2-fluorobenzyl)amino)-2-oxoethyl)-N-cyclopropylacetamide]	1 to 10 µM
CC(C)N(CC(=O)NCc1cccc(Cl)c1F)C(=O)Cn1cc(C(N)=O)c2c(N)ncnc21 [65a, 4-amino-7-(2-((2-((3-chloro-2-fluorobenzyl)amino)-2-oxoethyl)(isopropyl)amino)-2-oxoethyl)-7H-pyrrolo[2,3-d]pyrimidine-5-carboxamide]	1 to 10 µM
Nc1ncnc2c1cnn2CC(=O)N(CC(=O)NCc1cccc(Cl)c1F)C1CC1 [68a, 2-(4-amino-1H-pyrazolo[3,4-d]pyrimidin-1-yl)-N-(2-((3-chloro-2-fluorobenzyl)amino)-2-oxoethyl)-N-cyclopropylacetamide]	1 to 10 µM
NC(=O)c1ncnc2c1ccn2CC(=O)N(CC(=O)Nc1cncc(Br)n1)C1CC1 [84a, 7-(2-((2-((6-bromopyrazin-2-yl)amino)-2-oxoethyl)(cyclopropyl)amino)-2-oxoethyl)-7H-pyrrolo[2,3-d]pyrimidine-4-carboxamide]	> 10 µM
NC(=O)c1nn(CC(=O)N(CC(=O)NCc2cccc(Cl)c2F)[C@H]2C[C@@H](O)C2)c2ccccc12 [104b, 1-(2-((2-((3-chloro-2-fluorobenzyl)amino)-2-oxoethyl)((cis)-3-hydroxycyclobutyl)amino)-2-oxoethyl)-1H-indazole-3-carboxamide]	< 1 µM
NC(=O)c1nn(CC(=O)N(CC(=O)NCc2cccc(Cl)c2F)[C@H]2C[C@H](O)C2)c2ccccc12 [110b, 1-(2-((2-((3-chloro-2-fluorobenzyl)amino)-2-oxoethyl)((trans)-3-hydroxycyclobutyl)amino)-2-oxoethyl)-1H-indazole-3-carboxamide]	< 1 µM
CC(=O)c1cn(CC(=O)N(CC(=O)NCc2cccc(Cl)c2F)[C@H]2C[C@H](O)C2)c2ccc(Nc3cncnc3)cc12 [114a, 2-(3-acetyl-5-(pyrimidin-5-ylamino)-1H-indol-1-yl)-N-(2-((3-chloro-2-fluorobenzyl)amino)-2-oxoethyl)-N-((trans)-3-hydroxycyclobutyl)acetamide]	< 1 µM
CC(=O)c1cn(CC(=O)N(CC(=O)NCc2cccc(Cl)c2F)C(C)C)c2ccc(C#Cc3cccnc3)cc12 [131a, 2-(3-acetyl-5-(pyridin-3-ylethynyl)-1H-indol-1-yl)-N-(2-((3-chloro-2-fluorobenzyl)amino)-2-oxoethyl)-N-isopropylacetamide]	< 1 µM
CC(C)(C)OC(=O)N[C@H]1C[C@@H](N(CC(=O)NCc2cccc(Cl)c2F)C(=O)Cn2nc(C(N)=O)c3ccccc32)C1 [152b, tert-butyl ((cis)-3-(2-(3-carbamoyl-1H-indazol-1-yl)-N-(2-((3-chloro-2-fluorobenzyl)amino)-2-oxoethyl)acetamido)cyclobutyl)carbamate]	< 1 µM
NC(=O)c1nn(CC(=O)N(CC(=O)NCc2cccc(Cl)c2F)[C@H]2C[C@@H](N)C2)c2ccccc12 [153a, 1-(2-(((cis)-3-aminocyclobutyl)(2-((3-chloro-2-fluorobenzyl)amino)-2-oxoethyl)amino)-2-oxoethyl)-1H-indazole-3-carboxamide]	< 1 µM
CC(C)(C)OC(=O)N[C@H]1C[C@H](CN(CC(=O)NCc2cccc(Cl)c2F)C(=O)Cn2nc(C(N)=O)c3ccccc32)C1 [161b, tert-butyl ((trans)-3-((2-(3-carbamoyl-1H-indazol-1-yl)-N-(2-((3-chloro-2-fluorobenzyl)amino)-2-oxoethyl)acetamido)methyl)cyclobutyl)carbamate]	1 to 10 µM
NC(=O)c1nn(CC(=O)N(CC(=O)NCc2cccc(Cl)c2F)C[C@H]2C[C@H](N)C2)c2ccccc12 [161c, 1-(2-((((trans)-3-aminocyclobutyl)methyl)(2-((3-chloro-2-fluorobenzyl)amino)-2-oxoethyl)amino)-2-oxoethyl)-1H-indazole-3-carboxamide]	< 1 µM
NC(=O)c1nn(CC(=O)N(CC(=O)NCc2cccc(Cl)c2F)[C@H]2C[C@H](N)C2)c2ccccc12 [169c, 1-(2-(((trans)-3-aminocyclobutyl)(2-((3-chloro-2-fluorobenzyl)amino)-2-oxoethyl)amino)-2-oxoethyl)-1H-indazole-3-carboxamide]	< 1 µM
CO[C@H]1C[C@H](N(CC(=O)NCc2cccc(Cl)c2F)C(=O)Cn2nc(C(N)=O)c3ccccc32)C1 [170b, 1-(2-((2-((3-chloro-2-fluorobenzyl)amino)-2-oxoethyl)((trans)-3-methoxycyclobutyl)amino)-2-oxoethyl)-1H-indazole-3-carboxamide]	< 1 µM
NC(=O)c1nn(CC(=O)N(CC(=O)NCc2cccc(Cl)c2F)C[C@H]2C[C@H](O)C2)c2ccccc12 [172b, 1-(2-((2-((3-chloro-2-fluorobenzyl)amino)-2-oxoethyl)(((trans)-3-hydroxycyclobutyl)methyl)amino)-2-oxoethyl)-1H-indazole-3-carboxamide]	< 1 µM
CC(=O)c1nn(CC(=O)N(CC(=O)NCc2cccc(Cl)c2F)[C@H]2C[C@H](O)C2)c2ccc(Nc3cncnc3)cc12 [182a, 2-(3-acetyl-5-(pyrimidin-5-ylamino)-1H-indazol-1-yl)-N-(2-((3-chloro-2-fluorobenzyl)amino)-2-oxoethyl)-N-(trans-3-hydroxycyclobutyl)acetamide]	< 1 µM
CC(=O)c1nn(CC(=O)N(CC(=O)NCc2cccc(Cl)c2F)[C@H]2C[C@H](O)C2)c2ccccc12 [183a, 2-(3-acetyl-1H-indazol-1-yl)-N-(2-((3-chloro-2-fluorobenzyl)amino)-2-oxoethyl)-N-(trans-3-hydroxycyclobutyl)acetamide]	< 1 µM
N#Cc1cn(CC(=O)N(CC(=O)NCc2cccc(Cl)c2F)C2CC2)c2ccc(C(=O)NCc3ccccc3)cc12 [200i, N-benzyl-1-(2-((2-((3-chloro-2-fluorobenzyl)amino)-2-oxoethyl)(cyclopropyl)amino)-2-oxoethyl)-3-cyano-1H-indole-5-carboxamide]	1 to 10 µM
NC(=O)c1nn(CC(=O)N(CC(=O)NCc2cccc(Cl)c2F)[C@H]2C[C@@H](CO)C2)c2ccccc12 [210b, 1-(2-((2-((3-chloro-2-fluorobenzyl)amino)-2-oxoethyl)((cis)-3-(hydroxymethyl)cyclobutyl)amino)-2-oxoethyl)-1H-indazole-3-carboxamide]	< 1 µM
COC(=O)c1ccc2c(c1)c(C(C)=O)nn2CC(=O)N(CC(=O)NCc1cccc(Cl)c1F)C1CC1 [227a, methyl 3-acetyl-1-(2-((2-((3-chloro-2-fluorobenzyl)amino)-2-oxoethyl)(cyclopropyl)amino)-2-oxoethyl)-1H-indazole-5-carboxylate]	< 1 µM
CC(O)c1nn(CC(=O)N(CC(=O)NCc2cccc(Cl)c2F)C2CC2)c2ccc(NC(=O)N3CCCC(F)(F)C3)cc12 (stereo not drawn) [289a, N-(1-(2-((2-((3-chloro-2-fluorobenzyl)amino)-2-oxoethyl)(cyclopropyl)amino)-2-oxoethyl)-3-(1-hydroxyethyl)-1H-indazol-5-yl)-3,3-difluoropiperidine-1-carboxamide]	1 to 10 µM
CC(C)(C)CC(=O)Nc1ccc2c(C(N)=O)nn(CC(=O)N(CC(=O)NCc3cccc(Cl)c3F)C3CC3)c2c1 [322b, 1-(2-((2-((3-chloro-2-fluorobenzyl)amino)-2-oxoethyl)(cyclopropyl)amino)-2-oxoethyl)-6-(3,3-dimethylbutanamido)-1H-indazole-3-carboxamide]	< 1 µM
NC(=O)c1nn(CC(=O)N(CC(=O)NCc2cccc(Cl)c2F)C2CC2)c2ncc(N)cc12 [326b, 5-amino-1-(2-((2-((3-chloro-2-fluorobenzyl)amino)-2-oxoethyl)(cyclopropyl)amino)-2-oxoethyl)-1H-pyrazolo[3,4-b]pyridine-3-carboxamide]	1 to 10 µM
C[C@H](CO)N(CC(=O)NCc1cccc(Cl)c1F)C(=O)Cn1nc(C(N)=O)c2cc(NC(=O)OC(C)(C)C)ccc21 [345e, (R)-tert-butyl (3-carbamoyl-1-(2-((2-((3-chloro-2-fluorobenzyl)amino)-2-oxoethyl)(1-hydroxypropan-2-yl)amino)-2-oxoethyl)-1H-indazol-5-yl)carbamate]	< 1 µM
NC(=O)c1nn(CC(=O)N(CC(=O)NCc2cccc(Cl)c2F)[C@H]2C[C@H](N)C2)c2ccc([N+](=O)[O-])cc12 [347b, 1-(2-(((trans)-3-aminocyclobutyl)(2-((3-chloro-2-fluorobenzyl)amino)-2-oxoethyl)amino)-2-oxoethyl)-5-nitro-1H-indazole-3-carboxamide]	< 1 µM
NC(=O)c1nn(CC(=O)N(CC(=O)Nc2cccc(Br)n2)[C@H]2C[C@H](N)C2)c2ccccc12 [349d, 1-(2-(((trans)-3-aminocyclobutyl)(2-((6-bromopyridin-2-yl)amino)-2-oxoethyl)amino)-2-oxoethyl)-1H-indazole-3-carboxamide]	< 1 µM
NC(=O)c1nn(CC(=O)N(CC(=O)Nc2cncc(Br)n2)[C@H]2C[C@H](N)C2)c2ccccc12 [350c, 1-(2-(((trans)-3-aminocyclobutyl)(2-((6-bromopyrazin-2-yl)amino)-2-oxoethyl)amino)-2-oxoethyl)-1H-indazole-3-carboxamide]	< 1 µM
